Consider 17 molecules from patent US10829478B2, “5-[3-[piperazin-1-yl]-3-oxo-propyl]-imidazolidine-2,4-dione derivatives as ADAMTS 4 and 5 inhibitors for treating e.g. osteoarthritis” (Galapagos NV, priority 2016, dated 2020).

For assay [1], the target named is human ADAMTS4 (Homo sapiens (Human), UniProt O75173). Briefly: hADAMTS-4 TBIS-1 cleavage assay, Protocol 2. It counts as biochemical.
The target of assay [2] is human TACE (Homo sapiens (Human), UniProt P78536). The experiment in a line: biochemical.
Procedure: Finally, the fluorescence is read on the Envision (Perkin Elmer) after an incubation of 75 min at room temperature (Excitation 485 nm, Emission 530).
For assay [3], the target named is human MMP14 (Homo sapiens (Human), UniProt P50281). The experiment in a line: hMMP14 assay (390 MMP FRET Substrate I). Type of assay: biochemical. Particulars: human MMP14 (Biomol), read-out: hMMP-14 potency IC50.
Procedure: The basis for the assay is the cleavage of the substrate 390 MMP FRET Substrate I (Anaspec Cat #AS-27076) by human MMP14 (Biomol, Cat #SE-259).
The reaction is initiated by adding to the assay plate 390 MMP FRET Substrate I (10 μL, 2.5 μM) in the same buffer.
Finally, the fluorescence is read on the Envision (Perkin Elmer) after an incubation of 60 min at room temperature (Excitation 485 nm, Emission 530).
The target in assay [4] is human ADAMTS6 (Homo sapiens (Human), UniProt Q9UKP5). Briefly: hADAMTS-6 fluorescent based protease assay (520 MMP FRET substrate XII). Type of assay: biochemical. Particulars: 37° C. for 2 h; read-out: hADAMTS-6 potency IC50. The gist of the method: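 ADAMTS6 (0.73 nM final) in 25 mM Tris pH 8.0, 0.05% CHAPS, 2.5 mM CaCl2 with compound dilution series (top 20 μM, 1/5 steps). Reaction started with 520 MMP FRET Substrate XII, incubated 2 h at 37 °C. Substrate cleavage read by fluorescence ex485/em530; IC50 determined.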

Assay [5] addresses human MMP13 (Homo sapiens (Human), UniProt P45452). Briefly: hMMP13 assay, Protocol 2 (390 MMP FRET Substrate I, Enzo enzyme). It counts as biochemical. Particulars: Protocol 2, human MMP13 (Enzo Life Sciences), read-out: hMMP-13 potency IC50. As to the method:
Human MMP13 is preactivated by incubated the enzyme in the same buffer complemented with 1 mM freshly prepared p-Aminophenylmercuric acetate (AMPA) for 1 h at 37° C.

Assay [6] concerns the target human ADAMTS-5 (Homo sapiens (Human), UniProt Q9UNA0). Briefly: hADAMTS-5 TBIS-1 cleavage assay, Protocol 3. Particulars: 90 min at 37° C., read-out: hADAMTS-5 potency IC50. Type of assay: biochemical.
Procedure: The reaction is initiated by adding to the assay plate TBIS-1 (10 μL, 4.5 μM, Anaspec) in the same buffer.
Finally, the fluorescence is read on the Envision (Perkin Elmer) after an incubation of 90 min at 37° C. (Excitation 485 nm, emission 530).
Where [7] appears, read: Protocol 2, 180 min at 37° C., read-out: ADAMTS4 potency IC50.

Where two headings read alike, the source gives them in different places. Where only a bound is given, the exact number is not on record here.

Chain of human ADAMTS4 (O75173 213-837): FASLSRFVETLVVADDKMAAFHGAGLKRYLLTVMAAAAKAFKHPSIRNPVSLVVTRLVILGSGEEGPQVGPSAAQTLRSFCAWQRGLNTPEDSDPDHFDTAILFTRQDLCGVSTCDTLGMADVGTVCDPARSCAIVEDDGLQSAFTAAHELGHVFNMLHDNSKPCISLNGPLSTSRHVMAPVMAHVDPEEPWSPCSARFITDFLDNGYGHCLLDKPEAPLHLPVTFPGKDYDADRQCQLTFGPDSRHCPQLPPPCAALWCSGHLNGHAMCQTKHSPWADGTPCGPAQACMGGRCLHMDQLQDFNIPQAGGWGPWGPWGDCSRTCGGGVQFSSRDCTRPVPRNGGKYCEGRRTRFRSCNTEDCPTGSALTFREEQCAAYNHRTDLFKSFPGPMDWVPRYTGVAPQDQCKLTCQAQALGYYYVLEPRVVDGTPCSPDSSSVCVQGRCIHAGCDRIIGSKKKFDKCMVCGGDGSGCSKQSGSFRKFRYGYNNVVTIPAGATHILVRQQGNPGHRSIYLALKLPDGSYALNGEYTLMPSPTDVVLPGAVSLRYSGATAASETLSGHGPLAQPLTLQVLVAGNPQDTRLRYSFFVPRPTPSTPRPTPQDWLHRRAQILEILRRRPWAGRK
Chain of human TACE (P78536 215-671): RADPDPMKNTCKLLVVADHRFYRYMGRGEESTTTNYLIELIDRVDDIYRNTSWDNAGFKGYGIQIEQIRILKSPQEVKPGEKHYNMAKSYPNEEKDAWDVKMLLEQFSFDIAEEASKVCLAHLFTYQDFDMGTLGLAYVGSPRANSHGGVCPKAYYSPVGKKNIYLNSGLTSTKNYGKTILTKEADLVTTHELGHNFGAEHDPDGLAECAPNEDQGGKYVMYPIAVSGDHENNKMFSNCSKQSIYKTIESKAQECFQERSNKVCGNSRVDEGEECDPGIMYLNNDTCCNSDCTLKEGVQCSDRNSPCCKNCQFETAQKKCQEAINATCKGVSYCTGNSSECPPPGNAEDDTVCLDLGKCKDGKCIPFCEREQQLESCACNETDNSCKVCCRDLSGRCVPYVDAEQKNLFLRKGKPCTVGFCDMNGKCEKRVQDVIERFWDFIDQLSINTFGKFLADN
Chain of human ADAMTS-5 (Q9UNA0 262-930): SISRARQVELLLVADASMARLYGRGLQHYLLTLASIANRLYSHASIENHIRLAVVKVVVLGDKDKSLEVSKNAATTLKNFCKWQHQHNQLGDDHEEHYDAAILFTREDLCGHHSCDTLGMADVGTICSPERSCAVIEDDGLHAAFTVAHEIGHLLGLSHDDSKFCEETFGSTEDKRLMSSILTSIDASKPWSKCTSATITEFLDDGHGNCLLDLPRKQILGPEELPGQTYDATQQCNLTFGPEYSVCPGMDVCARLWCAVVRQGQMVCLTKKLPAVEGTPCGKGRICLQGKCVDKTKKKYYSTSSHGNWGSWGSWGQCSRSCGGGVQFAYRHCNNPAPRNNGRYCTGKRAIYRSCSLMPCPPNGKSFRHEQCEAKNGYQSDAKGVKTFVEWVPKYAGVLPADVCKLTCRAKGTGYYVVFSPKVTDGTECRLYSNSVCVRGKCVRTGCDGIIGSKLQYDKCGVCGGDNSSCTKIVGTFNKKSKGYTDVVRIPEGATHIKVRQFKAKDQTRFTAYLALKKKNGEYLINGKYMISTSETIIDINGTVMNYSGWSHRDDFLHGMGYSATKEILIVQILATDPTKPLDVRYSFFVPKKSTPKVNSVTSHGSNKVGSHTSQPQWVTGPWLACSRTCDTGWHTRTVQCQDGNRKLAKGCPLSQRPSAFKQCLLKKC
Chain of human ADAMTS6 (Q9UKP5 other isoform, or with tags, fused parts or gaps): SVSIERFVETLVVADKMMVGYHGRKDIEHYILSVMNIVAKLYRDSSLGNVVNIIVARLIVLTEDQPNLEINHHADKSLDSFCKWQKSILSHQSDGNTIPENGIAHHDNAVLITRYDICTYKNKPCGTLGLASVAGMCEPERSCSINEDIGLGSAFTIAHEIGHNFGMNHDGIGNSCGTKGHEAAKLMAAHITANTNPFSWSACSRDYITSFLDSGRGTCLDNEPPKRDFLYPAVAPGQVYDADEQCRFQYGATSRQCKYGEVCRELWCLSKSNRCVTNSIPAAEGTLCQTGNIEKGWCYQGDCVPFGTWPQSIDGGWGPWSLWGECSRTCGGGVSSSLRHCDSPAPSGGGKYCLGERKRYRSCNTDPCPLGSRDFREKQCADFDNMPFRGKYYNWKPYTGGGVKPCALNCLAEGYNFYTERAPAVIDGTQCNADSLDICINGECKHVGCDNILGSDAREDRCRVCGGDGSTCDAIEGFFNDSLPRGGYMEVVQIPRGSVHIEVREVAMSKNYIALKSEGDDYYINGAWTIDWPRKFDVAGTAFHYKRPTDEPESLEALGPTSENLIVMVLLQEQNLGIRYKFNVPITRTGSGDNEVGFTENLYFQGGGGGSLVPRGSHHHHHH

Take `CCc1cc(N2CCN(C(=O)[C@@H](C)C[C@@]3(COC)NC(=O)NC3=O)C[C@@H]2C)cc(OC)c1Cl` (mixture of isomers) [Cpd 117, 5-[3-[(3S)-4-(4-chloro-3-ethyl-5-methoxy-phenyl)-3-methyl-piperazin-1-yl]-2-methyl-3-oxo-propyl]-5-(methoxymethyl)imidazolidine-2,4-dione]: the IC50 in assay [1] (setting [7]) was over 100 nM; in assay [2], over 100 nM; in assay [3], over 100 nM; in assay [4] it was 0.001 to 25 nM; in assay [5], over 100 nM; in assay [6], 50 to 100 nM.

Take `COC[C@]1(C[C@H](C)C(=O)N2CCN(c3cc(F)c(Cl)c(OC)c3)[C@@H](C)C2)NC(=O)NC1=O` (mixture of isomers) [Cpd 121, 5-[3-[(3S)-4-(4-chloro-3-fluoro-5-methoxy-phenyl)-3-methyl-piperazin-1-yl]-2-methyl-3-oxo-propyl]-5-(methoxymethyl)imidazolidine-2,4-dione]: the IC50 was 50 to 100 nM in assay [1]; over 100 nM in assay [2]; over 100 nM in assay [3]; 0.001 to 25 nM in assay [4]; over 100 nM in assay [5]; 25 to 50 nM in assay [6].

With `COc1cc(N2CCN(C(=O)C(C)CC3(C)NC(=O)NC3=O)C[C@@H]2C)cc(C)c1Cl` (mixture of isomers) [Cpd 125, 5-[3-[(3S)-4-(4-chloro-3-methoxy-5-methyl-phenyl)-3-methyl-piperazin-1-yl]-2-methyl-3-oxo-propyl]-5-methyl-imidazolidine-2,4-dione], the concentration for half-maximal inhibition (IC50) is 50 to 100 nM in assay [1]; over 100 nM in assay [2]; over 100 nM in assay [3]; 0.001 to 25 nM in assay [4]; over 100 nM in assay [5]; 25 to 50 nM in assay [6].

On to `COc1cc(N2CCN(C(=O)[C@@H](C)C[C@H]3NC(=O)NC3=O)CC2)cc(F)c1F` (stereo in doubt) [Cpd 51, 5-[3-[4-(3,4-difluoro-5-methoxy-phenyl)piperazin-1-yl]-2-methyl-3-oxo-propyl]imidazolidine-2,4-dione], for which the IC50 in assay [1] (setting [7]) is over 100 nM; in assay [2], over 100 nM; in assay [3] it was over 100 nM; in assay [4] it was 0.001 to 25 nM; in assay [5] it was over 100 nM; in assay [6] it was over 100 nM.

`COc1cncc(N2CCN(C(=O)[C@@H](C)C[C@@]3(C4CC4)NC(=O)NC3=O)C[C@@H]2C)c1` (stereo in doubt) [Cpd 64, 5-cyclopropyl-5-[3-[(3 S)-4-(5-methoxy-3-pyridyl)-3-methyl-piperazin-1-yl]-2-methyl-3-oxo-propyl]imidazolidine-2,4-dione]: the IC50 in assay [1] (setting [7]) was over 100 nM; in assay [2], over 100 nM; in assay [3], over 100 nM; in assay [4], 50 to 100 nM; in assay [5], over 100 nM; in assay [6], 50 to 100 nM.

For `COc1cc(N2CCN(C(=O)[C@@H](C)C[C@@]3(C)NC(=O)NC3=O)C[C@@H]2C)cc(F)c1Cl` (stereo in doubt) [Cpd 120, 5-[3-[(3S)-4-(4-chloro-3-fluoro-5-methoxy-phenyl)-3-methyl-piperazin-1-yl]-2-methyl-3-oxo-propyl]-5-methyl-imidazolidine-2,4-dione], the IC50 in assay [1] is 50 to 100 nM; in assay [2], over 100 nM; in assay [3], over 100 nM; in assay [4] it was 0.001 to 25 nM; in assay [5] it was over 100 nM; in assay [6], 0.001 to 25 nM.

Consider `COc1cc(N2CCN(C(=O)CC[C@@]3(C)NC(=O)NC3=O)C[C@@H]2C)ccc1Cl` [Cpd 55, (5R)-5-[3-[(3 S)-4-(4-chloro-3-methoxy-phenyl)-3-methyl-piperazin-1-yl]-3-oxo-propyl]-5-methyl-imidazolidine-2,4-dione], for which the IC50 is over 100 nM in assay [1] (setting [7]); over 100 nM in assay [2]; over 100 nM in assay [3]; 0.001 to 25 nM in assay [4]; over 100 nM in assay [5]; 50 to 100 nM in assay [6].

For the molecule `CC[C@]1(C[C@H](C)C(=O)N2CCN(c3cc(F)c(F)c(OC)c3)CC2)NC(=O)NC1=O` [Cpd 57, (5R)-5-[(2S)-3-[4-(3,4-difluoro-5-methoxy-phenyl)piperazin-1-yl]-2-methyl-3-oxo-propyl]-5-ethyl-imidazolidine-2,4-dione], the IC50 in assay [1] is 50 to 100 nM; in assay [2], over 100 nM; in assay [3], over 100 nM; in assay [4], 0.001 to 25 nM; in assay [5], over 100 nM; in assay [6], 25 to 50 nM.

For `COc1cc(Cl)c(C)cc1N1CCN(C(=O)CCC2(C)NC(=O)NC2=O)CC1` (centres unmarked) [Cpd 58, 5-[3-[4-(4-chloro-2-methoxy-5-methyl-phenyl)piperazin-1-yl]-3-oxo-propyl]-5-methyl-imidazolidine-2,4-dione], the IC50 was over 100 nM in assay [1] (setting [7]); over 100 nM in assay [2]; 25 to 50 nM in assay [4]; over 100 nM in assay [5]; over 100 nM in assay [6].

For `COc1cc(N2CCN(C(=O)CCC3(c4cccc(C)n4)NC(=O)NC3=O)C[C@@H]2C)cc(F)c1F` (stereo partly drawn) [Cpd 61, 5-[3-[(3S)-4-(3,4-difluoro-5-methoxy-phenyl)-3-methyl-piperazin-1-yl]-3-oxo-propyl]-5-(6-methyl-2-pyridyl)imidazolidine-2,4-dione], the IC50 in assay [1] (setting [7]) was over 100 nM; in assay [2], over 100 nM; in assay [3], over 100 nM; in assay [4], 0.001 to 25 nM; in assay [5] it was over 100 nM; in assay [6] it was 25 to 50 nM.

Regarding `COc1cc(N2CCN(C(=O)CC[C@@]3(C4CC4)NC(=O)NC3=O)C[C@@H]2C)cc(Cl)c1F` [Cpd 62, (5S)-5-[3-[(3S)-4-(3-chloro-4-fluoro-5-methoxy-phenyl)-3-methyl-piperazin-1-yl]-3-oxo-propyl]-5-cyclopropyl-imidazolidine-2,4-dione], the IC50 is 50 to 100 nM in assay [1]; over 100 nM in assay [2]; over 100 nM in assay [3]; 0.001 to 25 nM in assay [4]; over 100 nM in assay [5]; 0.001 to 25 nM in assay [6].

Consider `COc1cc(N2CCN(C(=O)CC[C@@]3(C)NC(=O)NC3=O)C[C@@H]2C)cc(Cl)c1F` [Cpd 63, (5R)-5-[3-[(3 S)-4-(3-chloro-4-fluoro-5-methoxy-phenyl)-3-methyl-piperazin-1-yl]-3-oxo-propyl]-5-methyl-imidazolidine-2,4-dione], for which the IC50 in assay [1] (setting [7]) is over 100 nM; in assay [2], over 100 nM; in assay [3], over 100 nM; in assay [4], 0.001 to 25 nM; in assay [5], over 100 nM; in assay [6], 25 to 50 nM.

For `COc1cc(N2CCN(C(=O)CC[C@@]3(C4CC4)NC(=O)NC3=O)C[C@@H]2C)cc(F)c1Cl` [Cpd 65, (5S)-5-[3-[(3S)-4-(4-chloro-3-fluoro-5-methoxy-phenyl)-3-methyl-piperazin-1-yl]-3-oxo-propyl]-5-cyclopropyl-imidazolidine-2,4-dione], the IC50 in assay [1] was 50 to 100 nM; in assay [2], over 100 nM; in assay [3], over 100 nM; in assay [4], 0.001 to 25 nM; in assay [5] it was over 100 nM; in assay [6], 0.001 to 25 nM.

With `CCc1cc(N2CCN(C(=O)CC[C@@]3(C)NC(=O)NC3=O)CC2)ccc1Cl` [Cpd 71, (5R)-5-[3-[4-(4-chloro-3-ethyl-phenyl)piperazin-1-yl]-3-oxo-propyl]-5-methyl-imidazolidine-2,4-dione], the IC50 in assay [1] (setting [7]) was over 100 nM; in assay [2] it was over 100 nM; in assay [3], over 100 nM; in assay [4] it was 25 to 50 nM; in assay [5] it was over 100 nM; in assay [6] it was over 100 nM.

Consider `COc1cc(N2CCN(C(=O)CC[C@@]3(C)NC(=O)NC3=O)CC2)cc(OC)c1F` [Cpd 74, (5R)-5-[3-[4-(4-fluoro-3,5-dimethoxy-phenyl)piperazin-1-yl]-3-oxo-propyl]-5-methyl-imidazolidine-2,4-dione], for which the IC50 in assay [1] (setting [7]) was over 100 nM; in assay [2] it was over 100 nM; in assay [3], over 100 nM; in assay [4], 0.001 to 25 nM; in assay [5] it was over 100 nM; in assay [6], over 100 nM.

As for `CCc1cc(N2CCN(C(=O)CCC3(CCC(=O)OC(C)(C)C)NC(=O)NC3=O)C[C@@H]2C)ccc1Cl` (stereo partly drawn) [Cpd 114, tert-butyl 3-[4-[3-[(3S)-4-(4-chloro-3-ethyl-phenyl)-3-methyl-piperazin-1-yl]-3-oxo-propyl]-2,5-dioxo-imidazolidin-4-yl]propanoate], the IC50 in assay [1] (setting [7]) is over 100 nM; in assay [4] it was 0.001 to 25 nM; in assay [5], over 100 nM.

On to `CCc1cc(N2CCN(C(=O)CCC3(CCC(=O)O)NC(=O)NC3=O)C[C@@H]2C)ccc1Cl` (some centres unmarked) [Cpd 116, 3-[4-[3-[(3 S)-4-(4-chloro-3-ethyl-phenyl)-3-methyl-piperazin-1-yl]-3-oxo-propyl]-2,5-dioxo-imidazolidin-4-yl]propanoic acid], for which the values for the concentration for half-maximal inhibition (IC50) in assay [1] (setting [7]), in assay [4] and in assay [5] were over 100 nM, 0.001 to 25 nM and over 100 nM, respectively.

The term IC50 denotes the midpoint of a concentration-inhibition curve.
